Data set [1] has as its system Ovis aries. Description: Cardioprotective activity in iv dosed merino sheep ischemia/reperfusion injury model assessed as circulating LDH level measured 2 hrs post-reperfusion (reference value: 604 +/-58 U/L). It counts as functional.
The species entered for data set [2] is Rattus norvegicus. Description: Cardiotoxicity in Sprague-Dawley rat hindquarters ischemia/reperfusion model assessed as change in mean arterial pressure measured following ischemia/reperfusion. It counts as toxicity, organism-based, Artery. The note with it: in vivo.
For data set [3], the system named is Thoracic aorta. Description: Inhibition of superoxide anion production in Sprague-Dawley rat thoracic aorta with intact endothelium by lucigenin-based chemiluminescence analysis in presence of NADPH. It counts as functional.
For data set [4], the system named is Ovis aries. Description: Cardioprotective activity in merino sheep ischemia/reperfusion injury model assessed as infarct size at 5 mg/kg, iv administered as 20 mins infusion at 10 mins prior to reperfusion measured 3 hrs post-reperfusion by triphenyltetrazolium chloride staining (reference value: 80 +/-3%). It is filed as functional.
Data set [5] deals with Thoracic aorta. Nature of the data set: Vasorelaxant activity in Sprague-Dawley rat thoracic aorta with intact endothelium assessed as inhibition of Ca2+-induced contraction after 20 mins. To be noted: for IC50: Rattus norvegicus, Sprague-Dawley, Thoracic aorta, 20 min. It is filed as functional, tissue-based.
The species named for data set [6] is Rattus norvegicus. Nature of the data set: Cardiotoxicity in Sprague-Dawley rat hindquarters ischemia/reperfusion model assessed as change in heart rate measured following ischemia/reperfusion by tachometer analysis. It is filed as toxicity, organism-based. The note with it: in vivo.
Data set [7] relates to Thoracic aorta. Nature of the data set: Inhibition of superoxide anion production in Sprague-Dawley rat thoracic aorta with intact endothelium by lucigenin-based chemiluminescence analysis in presence of NADPH and absence of butyrylcholinesterase. It counts as functional, tissue-based.
The nature of data set [8]: Solubility of the compound in aqueous sodium carbonate. It is filed as physicochemical.
The test system of data set [9] is Thoracic aorta. Nature of the data set: Inhibition of superoxide anion production in Sprague-Dawley rat thoracic aorta with intact endothelium pretreated with butyrylcholinesterase for 1 hr by lucigenin-based chemiluminescence analysis in presence of NADPH. It is filed as functional.
The test system of data set [10] is Thoracic aorta. Nature of the data set: Vasorelaxant activity in Sprague-Dawley rat thoracic aorta with intact endothelium assessed as Ca2+-induced contraction after 20 mins in absence of butyrylcholinesterase. It counts as functional, tissue-based.
In data set [11] the test system is Thoracic aorta. Description: Vasorelaxant activity in Sprague-Dawley rat thoracic aorta with intact endothelium assessed as inhibition of Ca2+-induced contraction pretreated with butyrylcholinesterase for 1 hr. It counts as functional, tissue-based. The note with it: for IC50: Rattus norvegicus, Sprague-Dawley, Thoracic aorta.
Data set [12] has as its system Thoracic aorta. Description: Vasorelaxant activity in Sprague-Dawley rat thoracic aorta with intact endothelium assessed as inhibition of Ca2+-induced contraction after 20 mins in presence of alkaline phosphatase. It counts as functional, tissue-based. The note with it: for IC50: Rattus norvegicus, Sprague-Dawley, Thoracic aorta, 20 min.
The nature of data set [13]: Aqueous solubility of the compound. It is filed as physicochemical. The note with it: water (aqueous).
Data set [14] deals with Thoracic aorta. Nature of the data set: Inhibition of superoxide anion production in Sprague-Dawley rat thoracic aorta with intact endothelium by lucigenin-based chemiluminescence analysis in presence of NADPH and alkaline phosphatase. It counts as functional.
Data set [15] relates to Thoracic aorta. Nature of the data set: Vasorelaxant activity in Sprague-Dawley rat thoracic aorta with intact endothelium assessed as Ca2+-induced contraction after 20 mins in absence of alkaline phosphatase. It is filed as functional, tissue-based.
Data set [16] has as its system Ovis aries. Description: Cardioprotective activity in merino sheep ischemia/reperfusion injury model assessed as decrease in infarct size at 6.6 mg/kg, iv administered as bolus dose at 10 mins prior to reperfusion measured 3 hrs post-reperfusion by triphenyltetrazolium chloride staining. It is filed as functional, organism-based. Further details: dose 6.6 mg/kg.
Data set [17] concerns Ovis aries. Nature of the data set: Cardioprotective activity in merino sheep ischemia/reperfusion injury model assessed as circulating LDH level 6.6 mg/kg, iv administered as bolus dose at 10 mins prior to reperfusion measured 3 hrs post-reperfusion by automated analyzer (reference value: 152 +/-50 U/L). It counts as functional.
In data set [18] the test system is Rattus norvegicus. Description: Cardioprotective activity in iv dosed Sprague-Dawley rat hindquarters ischemia/reperfusion model assessed as decrease in circulating LDH level administered as bolus injection 5 mins prior to reperfusion by spectrophotometric analysis. It counts as functional, organism-based.
Another data set concerns Plasma. Description: Prodrug conversion in Sprague-Dawley rat plasma assessed as 3',4'-dihydroxyflavonol formation at 6.6 mg/kg, iv measured within 2 mins of drug administration by LC-MS/MS analysis. It is filed as ADME, organism-based. Also on record: dose 6.6 mg/kg, route intravenous. The note with it: in vivo.

Active and inactive are the calls of the source. No cut-off for these calls is given here.

In general, IC50 refers to the concentration at which inhibition is half-maximal. With `O=c1c(O)c(-c2ccc(O)c(O)c2)oc2ccccc12`, the Activity is recorded as 405 U/L with Ovis aries [1], “Non-toxic” in the data set filed under Rattus norvegicus [2], 50% in the data set with Ovis aries [4] and “Non-toxic” in the data set filed under Rattus norvegicus [6]. The Rmax in the data set with Thoracic aorta [3] is recorded as 84%; in the data set with Thoracic aorta [5], 89%. Also, the IC50 in the data set on Thoracic aorta [5] was 9.55 µM.

As usually defined, the solubility is the concentration that dissolves in the medium under given conditions. Low values mean little dissolved substance, high ones much dissolved substance. Turning to `O=C(O)CCCCC(=O)Oc1c(-c2ccc(O)cc2)oc2ccccc2c1=O`, the inhibition result in the data set on Thoracic aorta [7] is “inactive”. The compound also registered a solubility in data set [8] of more than 50 mg/mL. In addition, the Rmax in the data set with Thoracic aorta [9] worked out at 30%. In addition, the outcome in the data set with Thoracic aorta [10] was inactive. Further, in the data set with Thoracic aorta [11], the Rmax was 70% and the IC50 was 35.5 µM.

As for `O=c1c(OP(=O)([O-])[O-])c(-c2ccccc2)oc2ccccc12.[Na+].[Na+]`, in the data set with Thoracic aorta [12], the Rmax worked out at 40% and the IC50 was 4.68 µM. Further, in data set [13], the solubility is more than 200 mg/mL. In addition, in the data set on Thoracic aorta [14], the Rmax amounted to 36%. In addition, the outcome with Thoracic aorta [15] was inactive.

With `O=c1c(O)c(-c2ccccc2)oc2ccccc12` [FLAVONOL], the Rmax in the data set on Thoracic aorta [3] was found to be 20%. In the data set with Thoracic aorta [5], the Rmax is listed as 19% and the IC50 is 4.27 µM. In data set [13], this compound came in with a solubility of less than 1 mg/mL.

Take `O=C(O)CCCCC(=O)Oc1c(-c2ccc(O)c(O)c2)oc2ccccc2c1=O`: the result in the data set with Ovis aries [16] and with Rattus norvegicus [18] was Active. For the same compound, the Activity entry in the data set filed under Rattus norvegicus [2] was “Non-toxic”; in the data set on Ovis aries [17], 70 U/L; in the data set listed under Rattus norvegicus [6], “Non-toxic”. The inhibition result with Thoracic aorta [7] was “inactive”. For the same compound, the solubility in [8] was more than 50 mg/mL. Also, the Rmax with Thoracic aorta [9] was found to be 70%; in the data set with Thoracic aorta [11], 76%. In the data set with Thoracic aorta [10], the outcome was inactive. Also, the Drug metabolism result with Plasma is on record as “Active”. In addition, the IC50 in the data set with Thoracic aorta [11] is 33.9 µM.

On to `O=c1c(O)c(-c2ccc(O)cc2)oc2ccccc12`, for which the Rmax in the data set on Thoracic aorta [3] came out at 62%. In the data set with Thoracic aorta [5], the Rmax amounted to 70% and the IC50 was 11.7 µM. This compound also registered a solubility in [13] of less than 1 mg/mL.

As to `O=c1c(OP(=O)([O-])[O-])c(-c2ccc(O)cc2)oc2ccccc12.[Na+].[Na+]`, the result in the data set with Ovis aries [16] and in the data set with Rattus norvegicus [18] was Active. Also, the Activity result in the data set filed under Rattus norvegicus [2] and in the data set listed under Rattus norvegicus [6] was “Non-toxic” in each case. The Rmax was 63% in the data set on Thoracic aorta [12] and 27% in the data set on Thoracic aorta [14]. In the data set with Thoracic aorta [12], the IC50 is 3.98 µM. In data set [13], this compound came in with a solubility of more than 200 mg/mL. For the same compound, the result in the data set on Thoracic aorta [15] was inactive.
